Experimental data taken from patent US20190142974A1, “METHODS AND COMPOSITIONS FOR ATTENUATING ANTI-VIRAL TRANSFER VECTOR IGM RESPONSES” (Selecta Biosciences, Inc., priority 2017, published 2019).

Tested on: AAV
Experiment: Serum AAV IgG, ELISA
Assay type: in vivo, C57BL/6 female mice
Settings: Example 12, FIG. 24B
Procedure: Same serum samples from Example 3 were also tested for AAV IgG measured by ELISA along the same lines as IgM with the exception of goat anti-mouse IgG specific-HRP being used.

## C=CC(=O)N1CCC[C@@H](n2nc(-c3ccc(Oc4ccccc4)cc3)c3c(N)ncnc32)C1 [ibrutinib]
  animals converting to AAV IgG-positive by d22: 10/10
